Converted amounts (≈) assume the structure as drawn.
Legend:
Format in all cases: cell-based
ESCHERICHIA COLI H560 = assay: In vitro antibacterial activity, MIC, BHI agar dilution; details: E. coli H560, unit assumed
ESCHERICHIA COLI DC-2 = assay: as above; details: E. coli DC-2, unit assumed
ESCHERICHIA COLI KNK 437 = details: E. coli KNK 437; BHI agar; unit assumed
ESCHERICHIA COLI JUHL = details: E. coli JUHL; BHI agar; unit assumed
[1] = system: PSEUDOMONAS AERUGINOSA BMH10; assay: In vitro antibacterial activity, MIC, BHI agar dilution; details: P. aeruginosa BMH10, unit assumed
[2] = system: PSEUDOMONAS AERUGINOSA DPHD-5263; assay: as above; details: P. aeruginosa DPHD-5263, unit assumed
CANDIDA ALBICANS CCH 442 = assay: as above; details: C. albicans CCH 442, unit assumed
[3] = system: STAPHYLOCOCCUS AUREUS CMX 642A; assay: as above; details: S. aureus CMX 642A, unit assumed
[4] = system: STAPHYLOCOCCUS AUREUS ATCC 6538P; assay: as above; details: S. aureus ATCC 6538P, 35-37° C., 20 to 24 hours, unit assumed
[5] = system: KLEBSIELLA PNEUMONIAE ATCC 8045; assay: as above; details: K. pneumoniae ATCC 8045, unit assumed
M[…] ATCC 4698 = assay: as above; details: M. luteus ATCC 4698, unit assumed
Method in brief: (§1)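 Agar dilution in BHI: plates inoculated with 1:100 dilutions of organisms (1:10 for Micrococcus and Streptococcus), incubated 20-24 h at 35-37° C, then inspected for the lowest inhibitory concentration against a drug-free growth control.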

STR[…] 508 = assay: as above; details: S. agalactiae CMX 508, unit assumed
Method in brief: as §1

M[…] ATCC 9341 = assay: as above; details: M. luteus ATCC 9341, unit assumed
Method in brief: as §1

EN[…] ATCC 8043 = assay: as above; details: E. faecium ATCC 8043, unit assumed
Method in brief: as §1

ESCHERICHIA COLI SS = assay: as above; details: E. coli SS, unit assumed
[6] = system: STAPHYLOCOCCUS AUREUS CMX 553; assay: as above; details: S. aureus CMX 553, unit assumed
[7] = system: STREPTOCOCCUS PYOGENES PIU 2548; assay: as above; details: S. pyogenes PIU 2548, unit assumed
[8] = system: STREPTOCOCCUS PYOGENES 930; assay: as above; details: S. pyogenes 930, unit assumed
[9] = system: STAPHYLOCOCCUS AUREUS A5177; assay: as above; details: S. aureus A5177, unit assumed
PSEUDOMONAS CEPACIA 296I = assay: as above; details: P. cepacia 296I, unit assumed
[10] = system: STAPHYLOCOCCUS EPIDERMIDIS 3519; details: S. epidermidis 3519; BHI agar; unit assumed
[11] = system: PSEUDOMONAS AERUGINOSA DPHD-2862; assay: In vitro antibacterial activity, MIC, BHI agar dilution; details: P. aeruginosa DPHD-2862, unit assumed
[12] = system: PSEUDOMONAS AERUGINOSA 5007; assay: as above; details: P. aeruginosa 5007, unit assumed
[13] = system: STREPTOCOCCUS BOVIS A-5169; assay: as above; details: S. bovis A-5169, unit assumed
[14] = system: STREPTOCOCCUS PYOGENES EES61; assay: as above; details: S. pyogenes EES61, unit assumed
[15] = system: PSEUDOMONAS AERUGINOSA K799/WT; assay: as above; details: P. aeruginosa K799/WT, unit assumed
[16] = system: STAPHYLOCOCCUS AUREUS A-5278; assay: as above; details: S. aureus A-5278, unit assumed
[17] = system: ENTEROBACTER AEROGENES ATCC 13048; assay: as above; details: E. aerogenes ATCC 13048, unit assumed
[18] = system: STAPHYLOCOCCUS AUREUS NCTC10649M; assay: as above; details: S. aureus NCTC10649M, unit assumed
[19] = system: MYCOBACTERIUM SMEGMATIS ATCC 114; assay: as above; details: M. smegmatis ATCC 114, unit assumed
[20] = system: PROVIDENCIA STUARTII CMX 640; details: P. stuartii CMX 640; BHI agar; unit assumed
[21] = system: STAPHYLOCOCCUS AUREUS 1775; assay: In vitro antibacterial activity, MIC, BHI agar dilution; details: S. aureus 1775, unit assumed
[22] = system: PSEUDOMONAS AERUGINOSA K799/61; assay: as above; details: P. aeruginosa K799/61, unit assumed

Work on `CC[C@H]1OC(=O)[C@H](C)C(=O)[C@H](C)[C@@H](O[C@@H]2O[C@H](C)C[C@H](N(C)C)[C@H]2O)[C@](C)(OC)C[C@@H](C)C2=N[C@@H](C)[C@H](C)N3C(=O)O[C@@]1(C)[C@H]3[C@H]2C` [Example 11] yielded an MIC (ESCHERICHIA COLI H560) of 6.2 µg/mL (≈ 9.31 µM), an MIC (ESCHERICHIA COLI DC-2) of 25 µg/mL (≈ 37.5 µM) and an MIC (ESCHERICHIA COLI KNK 437) of 25 µg/mL (≈ 37.5 µM). For the same compound, the MIC (ESCHERICHIA COLI JUHL) was 25 µg/mL (≈ 37.5 µM), the MIC [1] was > 100 µg/mL and the MIC [2] was > 100 µg/mL. For the same compound, the MIC (CANDIDA ALBICANS CCH 442) was > 100 µg/mL, the MIC [3] was 0.39 µg/mL (≈ 0.586 µM) and the MIC [4] was 0.39 µg/mL (≈ 0.586 µM). It also gave an MIC [5] of 12.5 µg/mL (≈ 18.8 µM), an MIC (M[…] ATCC 4698) of 0.39 µg/mL (≈ 0.586 µM) and an MIC (STR[…] 508) of 0.05 µg/mL (≈ 0.0751 µM). For the same compound, the MIC (M[…] ATCC 9341) was 0.2 µg/mL (≈ 0.3 µM), the MIC (EN[…] ATCC 8043) was 0.1 µg/mL (≈ 0.15 µM) and the MIC (ESCHERICHIA COLI SS) was 0.39 µg/mL (≈ 0.586 µM). The MIC [6] was 0.39 µg/mL (≈ 0.586 µM), the MIC [7] was 0.39 µg/mL (≈ 0.586 µM) and the MIC [8] was > 100 µg/mL. The MIC [9] was 0.39 µg/mL (≈ 0.586 µM), the MIC (PSEUDOMONAS CEPACIA 296I) was > 100 µg/mL and the MIC [10] was 0.39 µg/mL (≈ 0.586 µM). The MIC [11] was > 100 µg/mL, the MIC [12] was > 100 µg/mL and the MIC [13] was 0.01 µg/mL (≈ 0.015 µM). For the same compound, the MIC [14] was 0.005 µg/mL (≈ 0.00751 µM), the MIC [15] was > 100 µg/mL and the MIC [16] was > 100 µg/mL. For the same compound, the MIC [17] was 25 µg/mL (≈ 37.5 µM), the MIC [18] was 0.39 µg/mL (≈ 0.586 µM) and the MIC [19] was 6.2 µg/mL (≈ 9.31 µM). The MIC [20] was > 100 µg/mL and the MIC [21] was > 100 µg/mL.
Work on `CC[C@H]1OC(=O)[C@H](C)C(=O)[C@H](C)[C@@H](O[C@@H]2O[C@H](C)C[C@H](N(C)C)[C@H]2O)[C@](C)(OC)C[C@@H](C)C2=N[C@@H]3CN(CCc4ccccc4)C[C@@H]3N3C(=O)O[C@@]1(C)[C@H]3[C@H]2C` [Example 23] yielded an MIC (ESCHERICHIA COLI H560) of 6.2 µg/mL (≈ 7.92 µM), an MIC (ESCHERICHIA COLI DC-2) of 12.5 µg/mL (≈ 16 µM) and an MIC (ESCHERICHIA COLI KNK 437) of 25 µg/mL (≈ 31.9 µM). For the same compound, the MIC (ESCHERICHIA COLI JUHL) was 50 µg/mL (≈ 63.9 µM), the MIC [1] was > 100 µg/mL and the MIC [2] was > 100 µg/mL. For the same compound, the MIC (CANDIDA ALBICANS CCH 442) was > 100 µg/mL, the MIC [3] was 0.2 µg/mL (≈ 0.255 µM) and the MIC [4] was 0.2 µg/mL (≈ 0.255 µM). The MIC [5] was 100 µg/mL (≈ 128 µM), the MIC (M[…] ATCC 4698) was 0.2 µg/mL (≈ 0.255 µM) and the MIC (STR[…] 508) was ≤ 0.005 µg/mL. It also gave an MIC (M[…] ATCC 9341) of 0.05 µg/mL (≈ 0.0639 µM), an MIC (EN[…] ATCC 8043) of 0.05 µg/mL (≈ 0.0639 µM) and an MIC (ESCHERICHIA COLI SS) of 0.05 µg/mL (≈ 0.0639 µM). For the same compound, the MIC [6] was 0.2 µg/mL (≈ 0.255 µM), the MIC [7] was 0.78 µg/mL (≈ 0.996 µM) and the MIC [8] was > 100 µg/mL. It also gave an MIC [9] of 0.2 µg/mL (≈ 0.255 µM), an MIC (PSEUDOMONAS CEPACIA 296I) of 100 µg/mL (≈ 128 µM) and an MIC [10] of 0.78 µg/mL (≈ 0.996 µM). The MIC [11] was > 100 µg/mL, the MIC [12] was > 100 µg/mL and the MIC [13] was ≤ 0.005 µg/mL. The MIC [14] was ≤ 0.005 µg/mL, the MIC [15] was 100 µg/mL (≈ 128 µM) and the MIC [16] was > 100 µg/mL. It also gave an MIC [17] of 100 µg/mL (≈ 128 µM), an MIC [18] of 0.2 µg/mL (≈ 0.255 µM) and an MIC [19] of 0.39 µg/mL (≈ 0.498 µM). The MIC [20] was > 100 µg/mL, the MIC [22] was 0.2 µg/mL (≈ 0.255 µM) and the MIC [21] was > 100 µg/mL.
In the case of `C=CCN1CC2N=C3[C@H](C)C[C@@](C)(OC)[C@H](O[C@@H]4O[C@H](C)C[C@H](N(C)C)[C@H]4O)[C@@H](C)C(=O)[C@@H](C)C(=O)O[C@H](CC)[C@@]4(C)OC(=O)N(C2C1)[C@@H]4[C@H]3C` (stereo partly shown) [Example 116], the MIC (ESCHERICHIA COLI H560) is reported as 50 µg/mL (≈ 69.5 µM), the MIC (ESCHERICHIA COLI DC-2) is reported as 100 µg/mL (≈ 139 µM) and the MIC (ESCHERICHIA COLI KNK 437) is reported as > 100 µg/mL. For the same compound, the MIC (ESCHERICHIA COLI JUHL) was 50 µg/mL (≈ 69.5 µM), the MIC [1] was 100 µg/mL (≈ 139 µM) and the MIC [2] was > 100 µg/mL. The MIC (CANDIDA ALBICANS CCH 442) was > 100 µg/mL, the MIC [3] was 0.78 µg/mL (≈ 1.08 µM) and the MIC [4] was 0.78 µg/mL (≈ 1.08 µM). The MIC [5] was > 100 µg/mL, the MIC (M[…] ATCC 4698) was 0.39 µg/mL (≈ 0.542 µM) and the MIC (STR[…] 508) was 0.05 µg/mL (≈ 0.0695 µM). For the same compound, the MIC (M[…] ATCC 9341) was 0.2 µg/mL (≈ 0.278 µM), the MIC (EN[…] ATCC 8043) was 0.2 µg/mL (≈ 0.278 µM) and the MIC (ESCHERICHIA COLI SS) was 0.39 µg/mL (≈ 0.542 µM). The MIC [6] was 0.78 µg/mL (≈ 1.08 µM), the MIC [7] was 0.78 µg/mL (≈ 1.08 µM) and the MIC [8] was > 100 µg/mL. The MIC [9] was 0.78 µg/mL (≈ 1.08 µM), the MIC (PSEUDOMONAS CEPACIA 296I) was > 100 µg/mL and the MIC [10] was 0.78 µg/mL (≈ 1.08 µM). For the same compound, the MIC [11] was > 100 µg/mL, the MIC [12] was > 100 µg/mL and the MIC [13] was ≤ 0.005 µg/mL. For the same compound, the MIC [15] was > 100 µg/mL, the MIC [16] was > 100 µg/mL and the MIC [17] was > 100 µg/mL. For the same compound, the MIC [18] was 0.39 µg/mL (≈ 0.542 µM), the MIC [19] was 1.56 µg/mL (≈ 2.17 µM) and the MIC [20] was > 100 µg/mL. For the same compound, the MIC [22] was 3.1 µg/mL (≈ 4.31 µM) and the MIC [21] was > 100 µg/mL.
